Test results from patent publication US20240382498A1, “NOVEL INHIBITOR OF HYPE-MEDIATED AMPYLATION” (Purdue Research Foundation, priority 2023, published 2024).

Legend:
[1] = biological target: T1, E234G HYPE AMPylation of T229A BiP (Homo sapiens, UniProt Q9BVA6, E234G); test: Fluorescence in-gel T229A BiP AMPylation assay with E234G HYPE and Fl-ATP; type: biochemical; settings: 10 μM compound
T1 construct: Δ102 (aa 103-458) HYPE constructs (WT, E234G, and E234G/H363A); His6-SUMO (cleaved yes); made in house; host or cells: E. coli BL21-DE3-RILP
T1 sequence (Q9BVA6 103-458 E234G): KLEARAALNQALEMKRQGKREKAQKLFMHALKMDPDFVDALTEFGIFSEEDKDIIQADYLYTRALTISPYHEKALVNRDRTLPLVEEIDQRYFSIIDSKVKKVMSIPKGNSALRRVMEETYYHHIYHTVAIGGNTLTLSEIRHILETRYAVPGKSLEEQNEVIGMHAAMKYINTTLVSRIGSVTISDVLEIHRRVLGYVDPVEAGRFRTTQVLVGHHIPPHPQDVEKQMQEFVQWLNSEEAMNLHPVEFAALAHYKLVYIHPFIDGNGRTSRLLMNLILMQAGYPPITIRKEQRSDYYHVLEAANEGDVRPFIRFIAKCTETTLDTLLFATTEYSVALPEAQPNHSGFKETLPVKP
Procedure: 1 μM of WT HYPE (final concentration) was preincubated with 10 μM DMSO-dissolved compound (final concentration) or equivalent volume of 100% DMSO at room temperature for 10 min. Reactions were run for 20 hr at 30° C. in the dark and began with the addition of 1 μM Fl-ATP (final concentration). Alternatively, E234G HYPE AMPylation reactions were run at 10 min due to its hyperactivity. All other parameters were held constant. All reactions were performed HTS Buffer (50 mM HEPES, 1 mM MgCl2, 0.1% Triton X-100, pH 7.50). All reactions were quenched with 4×SDS loading dye, boiled for 5 min at 95° C., and samples were run on 12% SDS-PAGE gels. Gels were imaged on a Typhoon 9500 FLA imager (General Electric) for fluorescence at 473 nm. Imaged gels were then stained with Coomassie Brilliant Blue, destained, and imaged for protein concentration. Where specified, 5 μM of T229A BiP (final concentration) was added to reactions before the addition of compound.

HEK 293 cells = test: MTT cell viability assay, HEK 293; type: cell-based, human; settings: HEK 293, 10 μM, 48 hr
Procedure: The cell lines were procured from ATCC (American Type Culture Collection) and cultured in DMEM (Dulbecco's Modified Eagle Medium) supplemented with 10% FBS (fetal bovine serum) without antibiotics. Cells were grown and maintained in a humidified incubator at 37° C. with 5% CO2. For the MTT assay, cells were trypsinized and harvested at ˜80-90% confluency and seeded in 96 well plates at a density of 1×10^4 cells per well. The seeded cells were incubated overnight and treated with 1 μM, 3 μM, 5 μM, 7 μM, 10 μM, 20 μM, 30 μM or 50 μM (final concentration) of DMSO-dissolved compound for 48 hr. To rule out vehicle induced toxicity, only 0.5% of final DMSO concentration was added to the cells. Post-incubation, the compound treatment was removed and replaced with 0.5 mg/ml (final concentration) of freshly prepared MTT solution. After incubating for 3.5 hr at 37° C., 5% CO2 humidified incubator, MTT was carefully removed without aspirating the formazan crystals and replaced with equivalent volume of DMSO to dissolve the formazan crystals. The plates were then read using a multi-plate reader at 570 nm. The absorbance was recorded and % viability was calculated according to the following equation:
[formula] • where, Abt is the absorbance of compound treated cells and Abc is the absorbance of control cells.

SMILES: c1cn(-c2ccc(-c3nnc(-c4ccoc4)o3)cn2)cn1 [Compound I2.10]
- inhibition of T229A BiP AMPylation in gel [1]: confirm the inhibitory properties
- cell viability (HEK 293 cells): ~80%
